Assay results taken from patent US5665760A, “Lyophilized thioxanthenone antitumor agents” (priority 1995, dated 1997).

What was measured:
Type in all cases: in vivo
[1] = test system: pancreatic ductal adenocarcinoma #03; experiment: antitumor activity in mice against pancreatic ductal adenocarcinoma #03 (Panc 03)
Experimental: (§1) Representative examples of the invention were tested for antitumor activity in mice according to the following procedure:
(§2) The animals were pooled, implanted subcutaneously with 30 to 60 mg tumor fragments by 12-gauge trocar, and again pooled before unselective distribution to the various treatment and control groups. For early-stage treatment, chemotherapy was started within 1 to 5 days after tumor implantation while the number of cells was relatively small (10^7 to 10^8 cells). For advanced-stage treatment, chemotherapy was delayed until the tumor became relatively large (200 to 300 mg in size). A 300-mg tumor contains approximately 3×10^8 total cells. […] Tumors were measured with a caliper weekly (or twice weekly for the more rapidly growing tumors). Mice were sacrificed when their tumors reached 1500 mg (i.e., before they can cause the animal discomfort). Tumor weights were estimated from two-dimensional measurements.
(§3) The treatment and control groups were measured when the control group tumors reached approximately 700 to 1200 mg in size (Median of Group). The median tumor weight of each group was determined (including zeros). […] A T/C value <10% is considered to indicate highly significant antitumor activity.
(§4) The results are shown in Table I for pancreatic ductal adenocarcinoma #03 and in Table 2 for colon adenocarcinoma #38.

[2] = test system: P388/adriamycin resistant leukemia; experiment: P388/adriamycin resistant leukemia, cells implanted i.v.
[3] = test system: Mammary Adenocarcinoma 16/C/RP; experiment: antitumor activity in mice against Mammary Adenocarcinoma 16/C/RP
Experimental: as §1
The animals were pooled, implanted subcutaneously with 30 to 60 mg tumor fragments by 12-gauge trocar, and again pooled before unselective distribution to the various treatment and control groups. For early-stage treatment, chemotherapy was started within 1 to 5 days after tumor implantation while the number of cells was relatively small (10^7 to 10^8 cells). For advanced-stage treatment, chemotherapy was delayed until the tumor became relatively large (200 to 300 mg in size). A 300-mg tumor contains approximately 3×10^8 total cells. Tumors within a given advanced-stage trial were within a 2.5-fold size range for 90% of the animals. Tumors were measured with a caliper weekly (or twice weekly for the more rapidly growing tumors). Mice were sacrificed when their tumors reached 1500 mg (i.e., before they can cause the animal discomfort). Tumor weights were estimated from two-dimensional measurements.
The treatment and control groups were measured when the control group tumors reached approximately 700 to 1200 mg in size (Median of Group). The median tumor weight of each group was determined (including zeros). The T/C value (weight of treated tumors over the weight of control tumors) in percent is an indication of antitumor effectiveness: A T/C equal to or less than 42% is considered significant antitumor activity by the Drug Evaluation Branch of the Division of Cancer Treatment (NCl). A T/C value <10% is considered to indicate highly significant antitumor activity. A body weight loss nadir (mean of group) of greater than 20% or greater than 20% drug-deaths is considered to indicate an excessively toxic dosage.

[4] = test system: colon adenocarcinoma #38; experiment: antitumor activity in mice against colon adenocarcinoma #38; details: for Drug Deaths / Weight Loss: Table 2
Experimental: as §1, §2, §3, §4

[5] = 10^6 cells, 112 mg/kg total, i.v.→p.o. days 1, 4
[6] = 10^6 cells, 248 mg/kg total, i.v.→p.o. days 1, 4
[7] = Table 1, average body weight 25 g, total doses as in E1
[8] = Mus musculus, ip, read-out: T/C
[9] = i.p., total dose mg/kg by Example: 10:340, 11:518
[10] = p.o., total dose mg/kg by Example: 10:460, 11:885
[11] = p.o., total dose mg/kg by Example: 10:740, 11:1709
[12] = 10^5 cells, 200 mg/kg total, i.v. 3 hour infusion days 1, 4
[13] = 10^5 cells, 320 mg/kg total, i.v. 3 hour infusion days 1, 4
[14] = 10^5 cells, 520 mg/kg total, i.v. 3 hour infusion days 1, 4
[15] = 10^5 cells, 150 mg/kg total, i.v. 3 hour infusion days 1, 4
[16] = 10^5 cells, 300 mg/kg total, i.v. 3 hour infusion days 1, 4
[17] = 10^5 cells, 450 mg/kg total, i.v. 3 hour infusion days 1, 4
[18] = total dose 327 mg/kg, i.v. days 3-6 and p.o. days 7-10
[19] = total dose 529 mg/kg, i.v. days 3-6 and p.o. days 7-10
[20] = total dose 852 mg/kg, i.v. days 3-6 and p.o. days 7-10
[21] = 10^6 cells, 280 mg/kg total, i.v. 3 hour infusion day 1
[22] = 10^6 cells, 450 mg/kg total, i.v. 3 hour infusion day 1
[23] = 400 mg/kg total, i.v. infusion days 1, 4
[24] = 600 mg/kg total, i.v. infusion days 1, 4
[25] = 900 mg/kg total, i.v. infusion days 1, 4
[26] = 10^6 cells, 76 mg/kg total, i.v. […] infusion day 1
[27] = 10^6 cells, 123 mg/kg total, i.v. […] infusion day 1
[28] = 10^6 cells, 198 mg/kg total, i.v. […] infusion day 1
[29] = 10^6 cells, 320 mg/kg total, i.v. […] infusion day 1

## CCN(CC)CCNc1ccc(CNS(C)(=O)=O)c2sc3ccc(OC)cc3c(=O)c12 [31(c)]
[1]
  T/C: 0%
[1]; Table 1, total doses as in E1
  Drug Deaths: 0
[1]; mouse, in vivo
  Weight Loss: 5.6 g
[2]; [5]
  % ILS (percentage increase in lifespan): 0%
  Log10 Tumor cell kill: 0
  Wt. Loss at Nadir: -2.7 g/mouse
[2]; [6]
  % ILS (percentage increase in lifespan): 0%
  Log10 Tumor cell kill: 0
  Wt. Loss at Nadir: -3.0 g/mouse
[2]; mouse, in vivo, 112 mg/kg
  Drug Deaths: 0/6
[2]; mouse, in vivo, 248 mg/kg
  Drug Deaths: 1/6
[3]; 109.6 mg/kg total, i.v. 2X/day, days 3-6
  T/C Value: 6%
[3]; 156.8 mg/kg total, i.v. 2X/day, days 3-6
  T/C Value: 5%
[3]; 224 mg/kg total, i.v. 2X/day, days 3-6
  T/C Value: 0%
[3]; mouse, in vivo
  Drug Deaths: 0

## CCN(CC)CCNc1ccc(CNC(C)=O)c2sc3ccccc3c(=O)c12 [Example 10, N-[[1-[[2-(Diethylamino)ethyl]amino]-9-oxo-thioxanthen-4-yl]methyl]acetamide]
[1]; [7]
  Weight Loss: 2.4 g
[1]; Table 1, total doses as in E1
  Drug Deaths: 0
[4]; [8]
  response vs control in vivo at 160 mg/kg: 22%
  response vs control in vivo at 200 mg/kg: 24%
  response vs control in vivo at 865 mg/kg: 23%
[4]; [9]
  Drug Deaths: 0
  Weight Loss: 4.0 g
[4]; [10]
  Drug Deaths: 0
  Weight Loss: 1.2 g
[4]; [11]
  Drug Deaths: 2/5
  Weight Loss: 4.0 g
[4]; total dose 160 mg/kg i.p.
  Drug Deaths: 0
  Weight Loss: 0.6 g
[4]; total dose 200 mg/kg i.p.
  Drug Deaths: 0
  Weight Loss: 2.3 g
[4]; total dose 865 mg/kg i.p.
  Drug Deaths: 0
  Weight Loss: 2.0 g
[2]; [12]
  Drug Deaths: 0/7
  Wt. Loss at Nadir: -1.5 g/mouse
[2]; [13]
  Drug Deaths: 0/5
  Wt. Loss at Nadir: -1.75 g/mouse
[2]; [14]
  Drug Deaths: 3/7
  Wt. Loss at Nadir: -3.75 g/mouse
[2]; iv, 200 mg/kg
  Tumor Cell: 0/7
[2]; iv, 200 mg/kg, 3 h
  % ILS (percentage increase in lifespan): 8%
  Log10 Tumor cell kill: 0.5
[2]; iv, 320 mg/kg
  Tumor Cell: 0/5
[2]; iv, 320 mg/kg, 3 h
  % ILS (percentage increase in lifespan): 23%
  Log10 Tumor cell kill: 1.5
[2]; iv, 520 mg/kg, 3 h
  % ILS (percentage increase in lifespan): 54%
  Log10 Tumor cell kill: 3.5

## CCN(C=O)Cc1ccc(NCCN(CC)CC)c2c(=O)c3ccccc3sc12 [Example 13, N-[[1-[[2-(Diethylamino)ethyl]amino]-9-oxothioxanthen-4-yl]methyl]-N-ethylformamide]
[1]
  T/C: 0%
[1]; [7]
  Weight Loss: 2.4 g
[1]; Table 1, total doses as in E1
  Drug Deaths: 0
[2]; [15]
  Drug Deaths: 0/8
  Wt. Loss at Nadir: -1.75 g/mouse
[2]; [16]
  Drug Deaths: 0/7
  Wt. Loss at Nadir: -1.75 g/mouse
[2]; [17]
  Drug Deaths: 2/7
  Wt. Loss at Nadir: -3.0 g/mouse
[2]; iv, 150 mg/kg, 3 h
  % ILS (percentage increase in lifespan): 8%
  Log10 Tumor cell kill: 0.5
[2]; iv, 300 mg/kg
  Tumor Cell: 0/7
[2]; iv, 300 mg/kg, 3 h
  % ILS (percentage increase in lifespan): 15%
  Log10 Tumor cell kill: 1.0
[2]; iv, 450 mg/kg
  Tumor Cell: 0/7
[2]; iv, 450 mg/kg, 3 h
  % ILS (percentage increase in lifespan): 38%
  Log10 Tumor cell kill: 2.5

## CCN(CC)CCNc1ccc(CN(CC)S(C)(=O)=O)c2sc3ccccc3c(=O)c12 [Example 25, N-[[1-[[2-(Diethylamino)ethyl]amino]-9-oxothioxanthen-4-yl]methyl]-N-ethyl-methanesulfonamide]
[1]
  T/C: 0%
[1]; [7]
  Weight Loss: 4.6 g
[1]; Table 1, total doses as in E1
  Drug Deaths: 0
[4]; Mus musculus, read-out: T/C
  response vs control in vivo at 327 mg/kg: 0%
  response vs control in vivo at 529 mg/kg: 0%
  response vs control in vivo at 852 mg/kg: 0%
[4]; [18]
  Drug Deaths: 0
  Weight Loss: 0.8 g
[4]; [19]
  Drug Deaths: 0
  Weight Loss: 0.6 g
[4]; [20]
  Drug Deaths: 4/5
  Weight Loss: 4.8 g

## CCN(CC)CCNc1ccc(CNC)c2sc3ccc(OC)cc3c(=O)c12 [Example 30(h), 1-[[2-(Diethylamino)ethyl]amino]-4-[(methylamino)methyl]-7-methoxy-thioxanthen-9-one]
[1]
  T/C: 0%
[1]; [7]
  Weight Loss: 1.4 g
[1]; Table 1, total doses as in E1
  Drug Deaths: 0
[2]; [21]
  Drug Deaths: 0/7
  Wt. Loss at Nadir: -1.7 g/mouse
[2]; [22]
  Drug Deaths: 0/7
  Wt. Loss at Nadir: -2.3 g/mouse
[2]; iv, 280 mg/kg
  % ILS (percentage increase in lifespan): 69%
  Log10 Tumor cell kill: 6.0
  Tumor Cell: 2/7
[2]; iv, 450 mg/kg
  % ILS (percentage increase in lifespan): 62%
  Log10 Tumor cell kill: 5.3
  Tumor Cell: 0/7
[3]; [23]
  Drug Deaths: 0/5
  T/C Value: 46%
  Wt. Loss at Nadir: -1.0 g/mouse
[3]; [24]
  Drug Deaths: 0/5
  T/C Value: 23%
  Wt. Loss at Nadir: -0.7 g/mouse
[3]; [25]
  Drug Deaths: 1/6
  T/C Value: 29%
  Wt. Loss at Nadir: 0 g/mouse

## CCN(CC)CCNc1ccc(CNC(=O)OC)c2sc3ccccc3c(=O)c12 [Example 34, Methyl N-[[1-[[2-(diethylamino)ethyl]amino]-9-oxothioxanthen-4-yl]methyl]carbamate]
[1]; [7]
  Weight Loss: 3.6 g
[1]; Table 1, total doses as in E1
  Drug Deaths: 0
[2]; [26]
  Drug Deaths: 0/5
  Wt. Loss at Nadir: -0.4 g/mouse
[2]; [27]
  Drug Deaths: 0/5
  Wt. Loss at Nadir: -1.2 g/mouse
[2]; [28]
  Drug Deaths: 0/5
  Wt. Loss at Nadir: -1.2 g/mouse
[2]; [29]
  % ILS (percentage increase in lifespan): toxic
  Drug Deaths: 5/5
  Log10 Tumor cell kill: LD100
  Wt. Loss at Nadir: -3.6 g/mouse
[2]; iv, 76 mg/kg
  % ILS (percentage increase in lifespan): 0%
  Log10 Tumor cell kill: 0
  Tumor Cell: 0/5
[2]; iv, 123 mg/kg
  % ILS (percentage increase in lifespan): 8.3%
  Log10 Tumor cell kill: 0.7
  Tumor Cell: 0/5
[2]; iv, 198 mg/kg
  % ILS (percentage increase in lifespan): 41.7%
  Log10 Tumor cell kill: 3.3
  Tumor Cell: 0/5
[2]; iv, 320 mg/kg
  Tumor Cell: 0/5
